Where two headings read alike, the source gives them in different places.
Experiments:
[1] = test system: acetic acid induced writhing in mice; experiment: Acetic acid-induced writhing test; assay type: in vivo, ICR male mice; conditions: for activity versus other copper complexes and parent ligand: Table VI
Description: 1. Acetic acid-induced writhing test as described in Koster et al., "Acetic Acid for Analgesic Screening", Fed. Proc. 18, 412 (1959), incorporated by reference herein; and
Groups of 10 ICR male mice (Taisho Pharmaceutical Co. Research Center) were used to study each dose of every compound. Ligands or complexes were administered orally or subcutaneously in 0.1 ml of vehicle per 10 g of body weight 30 minutes before the intrapertioneal injection of 0.1 ml of 0.7% acetic acid solution per 10 g of body weight. Number of writhes were counted for each mouse during a period of 10 to 20 min after acetic acid injection. Inhibitory percent was calculated by comparison with the number of writhes in the non-treated control, vehicle-treated, and acetic acid-injected group. The ED50 value and 95% confidence limits were calculated from the inhibitory percent by the method of Litchfield and Wilcoxon.

[2] = test system: adjuvant-induced arthritic pain in rats; experiment: Adjuvant-induced arthritic pain; assay type: in vivo, male Sprague-Dawley rats
Excerpt: 2. Adjuvant-induced arthritic pain as described in:
S. KUZNA, et al., Measurement of Arthritic Pain and Effects of Analgesics in the Adjuvant-Treated Rat, Chem. Pharm. Bull. 23, 1184-1191 (1975);
C. A. WINTER, et al., Analgesic Activity of Diflunisal in Rats with Hyperalygesia Induced by Freud's Adjuvant, J. Pharmacol. Exp. Ther. 211, 678-685 (1979; and
M. E. ROSENTHALE, et al., Adjuvant Arthritis:Immuno-Pathological and Hyperalgesic Features, Fed. Proced. 41, 2577-2582 (1982),
incorporated by reference herein.
Groups of 5-6 male Sprague-Dawley rats (Taisho Pharmaceutical Co. Research Center) weighing 140 to 160 g at the time of Mycobacterium butyricum (adjuvant, Difco Laboratories, Detroit, Mich.) injection were used to study each compound. Rats were injected intradermally at the base of the tail with 0.1 ml of a parafin oil suspension of 0.5 mg of heat-killed mycobacterium. Fifteen to 19 days later, drugs were administered orally or subcutaneously in 0.5 ml of vehicle per 100 g of body weight to rats showing the nociceptive reaction, vocalization following a gentle flexion of the tarsal-tibial joint of the inflamed hind-paw. Vocalization responses were measured every hour for 5 hours. […] The ED50 value and 95% confidence limits were calculated from the positive rate for non-treated controls, vehicle-treated adjuvant arthritic rats, by the method of Litchfield and Wilcoxin.
All drugs were suspended with 5% gum arabic in saline solution or wetted with enough propylene glycol to give a final concentration of 4% propylene glycol and the wetted solid suspended in 1.4% polyvinyl alcohol in saline.

[3] = oral, 5% gum arabic, 0.45 mmol/kg
[4] = oral, 5% gum arabic, 0.90 mmol/kg
[5] = oral, 5% gum arabic, 1.46 mmol/kg
[6] = oral, 5% gum arabic, 0.56 mmol/kg
[7] = oral, 5% gum arabic, 1.11 mmol/kg
[8] = oral, 5% gum arabic, 0.20 mmol/kg
[9] = oral, 5% gum arabic, 0.40 mmol/kg
[10] = oral, 5% gum arabic, 0.42 mmol/kg
[11] = oral, 5% gum arabic, 0.33 mmol/kg
[12] = oral, 5% gum arabic, 0.30 mmol/kg
[13] = oral, 5% gum arabic, 0.60 mmol/kg

## CC(C)c1cc(C(=O)O)c(O)c(C(C)C)c1 [3,5-Dips, 3,5-diisopropylsalicylic acid, reference compound]
[1]; oral, 5% gum arabic in saline
  ED50: 0.27 mmol/kg
[1]; [3]
  % Inhibition: 66%
[1]; [4]
  % Inhibition: 88%
[1]; oral, PG-PVA in saline
  ED50: 0.44 mmol/kg
[1]; oral, PG-PVA, 0.45 mmol/kg
  % Inhibition: 56%
[1]; oral, PG-PVA, 0.90 mmol/kg
  % Inhibition: 78%
[1]; s.c., PG-PVA in saline
  ED50: 0.23 mmol/kg
[1]; s.c., PG-PVA, 0.11 mmol/kg
  % Inhibition: 22%
[1]; s.c., PG-PVA, 0.23 mmol/kg
  % Inhibition: 49%
[1]; s.c., PG-PVA, 0.45 mmol/kg
  % Inhibition: 91%
[2]; oral, 5% gum arabic in saline
  ED50: 0.36 mmol/kg
[2]; oral, 5% gum arabic, 0.22 mmol/kg
  % Inhibition: 30%
[2]; [3]
  % Inhibition: 53%
[2]; [4]
  % Inhibition: 92%
[2]; oral, PG-PVA in saline
  ED50: > 0.90 mmol/kg
[2]; oral, PG-PVA, 0.45 mmol/kg
  % Inhibition: 27%
[2]; oral, PG-PVA, 0.90 mmol/kg
  % Inhibition: 43%

## Nc1ccccc1C(=O)O [Anthranilic acid, reference compound]
[1]; oral, 5% gum arabic in saline
  ED50: > 1.46 mmol/kg
[1]; [5]
  % Inhibition: 18%
[1]; oral, PG-PVA in saline
  ED50: > 2.19 mmol/kg
[1]; oral, PG-PVA, 2.19 mmol/kg
  % Inhibition: 45%
[1]; s.c., PG-PVA in saline
  ED50: 0.64 mmol/kg
[1]; s.c., PG-PVA, 0.27 mmol/kg
  % Inhibition: 30%
[1]; s.c., PG-PVA, 0.55 mmol/kg
  % Inhibition: 36%
[1]; s.c., PG-PVA, 1.09 mmol/kg
  % Inhibition: 71%
[2]; oral, 5% gum arabic in saline
  ED50: 0.83 mmol/kg
[2]; oral, 5% gum arabic, 0.36 mmol/kg
  % Inhibition: 23%
[2]; oral, 5% gum arabic, 0.73 mmol/kg
  % Inhibition: 41%
[2]; [5]
  % Inhibition: 73%
[2]; oral, PG-PVA in saline
  ED50: > 1.44 mmol/kg
[2]; oral, PG-PVA, 1.46 mmol/kg
  % Inhibition: 37%

## CC(=O)Oc1ccccc1C(=O)O [Aspirin, acetylsalicylic acid, reference compound]
[1]; oral, 5% gum arabic in saline
  ED50: 1.30 mmol/kg
[1]; [6]
  % Inhibition: 29%
[1]; [7]
  % Inhibition: 42%
[1]; oral, 5% gum arabic, 2.22 mmol/kg
  % Inhibition: 66%
[1]; oral, PG-PVA in saline
  ED50: 0.48 mmol/kg
[1]; oral, PG-PVA, 0.21 mmol/kg
  % Inhibition: 32%
[1]; oral, PG-PVA, 0.42 mmol/kg
  % Inhibition: 41%
[1]; oral, PG-PVA, 0.84 mmol/kg
  % Inhibition: 67%
[1]; s.c., PG-PVA in saline
  ED50: 0.52 mmol/kg
[1]; s.c., PG-PVA, 0.28 mmol/kg
  % Inhibition: 28%
[1]; s.c., PG-PVA, 0.56 mmol/kg
  % Inhibition: 57%
[1]; s.c., PG-PVA, 1.11 mmol/kg
  % Inhibition: 71%
[2]; oral, 5% gum arabic in saline
  ED50: 0.62 mmol/kg
[2]; oral, 5% gum arabic, 0.28 mmol/kg
  % Inhibition: 27%
[2]; [6]
  % Inhibition: 43%
[2]; [7]
  % Inhibition: 70%
[2]; oral, PG-PVA in saline
  ED50: 1.41 mmol/kg
[2]; oral, PG-PVA, 0.56 mmol/kg
  % Inhibition: 30%
[2]; oral, PG-PVA, 1.11 mmol/kg
  % Inhibition: 40%
[2]; oral, PG-PVA, 2.22 mmol/kg
  % Inhibition: 63%

## CC(C)c1cc(C(=O)[O-])c(O)c(C(C)C)c1.CC(C)c1cc(C(=O)[O-])c(O)c(C(C)C)c1.[Cu+2] [Cu(II)(3,5-dips)2]
[1]; oral, 5% gum arabic in saline
  ED50: 0.40 mmol/kg
  analgesic effectiveness versus parent ligand: slightly less effective than its parent ligand
[1]; [8]
  % Inhibition: 35%
[1]; [9]
  % Inhibition: 48%
[1]; oral, 5% gum arabic, 0.80 mmol/kg
  % Inhibition: 66%
[1]; oral, PG-PVA
  analgesic effectiveness versus parent ligand: only as effective as its parent ligand
[1]; oral, PG-PVA in saline
  ED50: 0.43 mmol/kg
[1]; oral, PG-PVA, 0.20 mmol/kg
  % Inhibition: 26%
[1]; oral, PG-PVA, 0.40 mmol/kg
  % Inhibition: 56%
[1]; oral, PG-PVA, 0.79 mmol/kg
  % Inhibition: 62%
[1]; s.c., PG-PVA in saline
  ED50: 0.20 mmol/kg
[1]; s.c., PG-PVA, 0.10 mmol/kg
  % Inhibition: 27%
[1]; s.c., PG-PVA, 0.20 mmol/kg
  % Inhibition: 45%
[1]; s.c., PG-PVA, 0.40 mmol/kg
  % Inhibition: 74%
[2]; oral, 5% gum arabic
  analgesic effectiveness versus parent ligand: essentially equipotent with its ligand
[2]; oral, 5% gum arabic in saline
  ED50: 0.43 mmol/kg
[2]; oral, 5% gum arabic, 0.10 mmol/kg
  % Inhibition: 7%
[2]; [8]
  % Inhibition: 20%
[2]; [9]
  % Inhibition: 47%
[2]; oral, PG-PVA
  analgesic effectiveness versus parent ligand: more effective than its parent ligand
[2]; oral, PG-PVA in saline
  ED50: > 0.40 mmol/kg
[2]; oral, PG-PVA, 0.40 mmol/kg
  % Inhibition: 40%
[2]; s.c., PG-PVA in saline
  ED50: 0.12 mmol/kg
[2]; s.c., PG-PVA, 0.05 mmol/kg
  % Inhibition: 23%
[2]; s.c., PG-PVA, 0.10 mmol/kg
  % Inhibition: 37%
[2]; s.c., PG-PVA, 0.20 mmol/kg
  % Inhibition: 70%

## C[C@H](N)C(=O)[O-].C[C@H](N)C(=O)[O-].[Cu+2] [Cu(II)(L-alaninate)2]
[1]
  activity versus other copper complexes and parent ligand: less active than the other copper complexes
[1]; oral, 5% gum arabic in saline
  ED50: 0.92 mmol/kg
[1]; [10]
  % Inhibition: 22%
[1]; oral, 5% gum arabic, 0.83 mmol/kg
  % Inhibition: 48%
[1]; oral, 5% gum arabic, 1.67 mmol/kg
  % Inhibition: 71%
[2]; oral, 5% gum arabic in saline
  ED50: > 0.42 mmol/kg
[2]; [10]
  % Inhibition: 0%

## N[C@@H](CSSC[C@H](N)C(=O)[O-])C(=O)[O-].[Cu+2] [Cu(II)(L-cystinate)]
[1]
  activity versus other copper complexes and parent ligand: less active than the other copper complexes
[1]; oral, 5% gum arabic in saline
  ED50: > 0.33 mmol/kg
[1]; [11]
  % Inhibition: 35%
[2]; oral, 5% gum arabic in saline
  ED50: > 0.33 mmol/kg
[2]; [11]
  % Inhibition: 0%

## Nc1ccccc1C(=O)[O-].Nc1ccccc1C(=O)[O-].[Cu+2] [Cu(II)(anthranilate)2, Bisanthranilato(O,N)copper(II)]
[1]; oral, 5% gum arabic in saline
  ED50: 0.50 mmol/kg
  analgesic effectiveness versus parent ligand: more effective than their parent ligands
[1]; oral, 5% gum arabic, 0.15 mmol/kg
  % Inhibition: 25%
[1]; [12]
  % Inhibition: 47%
[1]; [13]
  % Inhibition: 50%
[1]; oral, PG-PVA
  analgesic effectiveness versus parent ligand: more effective than their parent ligands
[1]; oral, PG-PVA in saline
  ED50: > 0.89 mmol/kg
[1]; s.c., PG-PVA in saline
  ED50: 0.22 mmol/kg
[1]; s.c., PG-PVA, 0.07 mmol/kg
  % Inhibition: 30%
[1]; s.c., PG-PVA, 0.15 mmol/kg
  % Inhibition: 42%
[1]; s.c., PG-PVA, 0.30 mmol/kg
  % Inhibition: 57%
[2]; oral, 5% gum arabic
  analgesic effectiveness versus parent ligand: less effective than its parent ligand
[2]; oral, 5% gum arabic in saline
  ED50: > 0.60 mmol/kg
[2]; [12]
  % Inhibition: 0%
[2]; [13]
  % Inhibition: 10%
[2]; oral, PG-PVA
  analgesic effectiveness versus parent ligand: less effective than its parent ligand
[2]; oral, PG-PVA in saline
  ED50: > 0.60 mmol/kg
[2]; oral, PG-PVA, 0.60 mmol/kg
  % Inhibition: 17%
[2]; s.c., PG-PVA in saline
  ED50: 0.19 mmol/kg
[2]; s.c., PG-PVA, 0.07 mmol/kg
  % Inhibition: 20%
[2]; s.c., PG-PVA, 0.15 mmol/kg
  % Inhibition: 43%
[2]; s.c., PG-PVA, 0.30 mmol/kg
  % Inhibition: 63%

## [Cl][Cu][Cl] [Cu(II)(chloride)2, reference compound]
[1]; s.c., PG-PVA in saline
  ED50: 0.60 mmol/kg
[1]; s.c., PG-PVA, 0.56 mmol/kg
  % Inhibition: 48%
[1]; s.c., PG-PVA, 1.12 mmol/kg
  % Inhibition: 69%
[1]; s.c., PG-PVA, 2.24 mmol/kg
  % Inhibition: 83%
[2]; doses statistically significantly analgesic in the writhing model
  analgesic activity: devoid of analgesic activity
[2]; oral, PG-PVA in saline
  ED50: > 2.24 mmol/kg
[2]; oral, PG-PVA, 2.24 mmol/kg
  % Inhibition: 0%
[2]; s.c., PG-PVA in saline
  ED50: > 2.24 mmol/kg
[2]; s.c., PG-PVA, 2.24 mmol/kg
  % Inhibition: 3%

## NCC(=O)[O-].NCC(=O)[O-].[Cu+2] [Cu(II)(glycinate)2]
[1]
  activity versus other copper complexes and parent ligand: less active than the other copper complexes
[1]; oral, 5% gum arabic in saline
  ED50: > 1.89 mmol/kg
[1]; oral, 5% gum arabic, 1.89 mmol/kg
  % Inhibition: 48%

## NCC(=O)O [Glycine, reference compound]
[1]; oral, 5% gum arabic in saline
  ED50: > 5.33 mmol/kg
[1]; oral, 5% gum arabic, 5.33 mmol/kg
  % Inhibition: 36%

## C[C@H](N)C(=O)O [L-alanine, reference compound]
[1]; oral, 5% gum arabic in saline
  ED50: > 4.49 mmol/kg
[1]; oral, 5% gum arabic, 4.49 mmol/kg
  % Inhibition: 14%

## N[C@@H](CS)C(=O)O [L-cysteine, reference compound]
[1]; oral, 5% gum arabic in saline
  ED50: > 3.30 mmol/kg
[1]; oral, 5% gum arabic, 3.30 mmol/kg
  % Inhibition: -5%

## CN1CC[C@]23c4c5ccc(O)c4O[C@H]2[C@@H](O)C=C[C@H]3[C@H]1C5 [morphine, reference compound]
[2]; Rattus norvegicus, sc, read-out: ED50 (AA)
  ED50: 0.002 mmol/kg
[2]; s.c., hydrochloride salt in saline
  ED50 (AA): 0.002 mmol/kg
[2]; s.c., hydrochloride salt in saline, 0.001 mmol/kg
  % Inhibition: 20%
[2]; s.c., hydrochloride salt in saline, 0.002 mmol/kg
  % Inhibition: 40%
[2]; s.c., hydrochloride salt in saline, 0.004 mmol/kg
  % Inhibition: 60%

— patent US5541174A, “Analgesic method” (priority 1995, dated 1996)
